According to ChEMBL document CHEMBL3286112, “Novel aza-analogous ergoline derived scaffolds as potent serotonin 5-HT₆ and dopamine D₂ receptor ligands” (J Med Chem, 2014):
Active and inactive are the calls of the source. No cut-off for these calls is given here.

Tests used:
[1] = molecular target: T1, 5-hydroxytryptamine receptor 6 (Homo sapiens, UniProt P50406); assay: Displacement of [3H]LSD from human 5-HT6 receptor expressed in hamster BHK cells after 60 mins by scintillation counting analysis; format: cell-based
[2] = molecular target: T2, 5-hydroxytryptamine receptor 2C (Homo sapiens, UniProt P28335); assay: Displacement of [3H]mesulergine from human 5-HT2C receptor expressed in human tsA201 cells after 1 hr by scintillation counting analysis; format: cell-based
T2 sequence (P28335 whole entry): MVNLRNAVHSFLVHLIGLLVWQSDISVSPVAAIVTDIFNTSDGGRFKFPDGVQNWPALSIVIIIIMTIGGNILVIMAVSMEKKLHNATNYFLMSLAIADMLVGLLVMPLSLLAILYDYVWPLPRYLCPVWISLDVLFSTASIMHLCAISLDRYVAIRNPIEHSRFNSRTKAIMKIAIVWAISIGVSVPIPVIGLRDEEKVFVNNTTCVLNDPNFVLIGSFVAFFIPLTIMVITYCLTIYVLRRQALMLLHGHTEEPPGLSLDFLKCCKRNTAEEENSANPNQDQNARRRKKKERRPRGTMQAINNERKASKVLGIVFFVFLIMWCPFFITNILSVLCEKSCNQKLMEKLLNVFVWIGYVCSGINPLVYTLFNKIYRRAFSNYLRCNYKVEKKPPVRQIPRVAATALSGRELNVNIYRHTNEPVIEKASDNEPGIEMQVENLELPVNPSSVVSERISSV

[3] = molecular target: T2, 5-hydroxytryptamine receptor 2C; assay: Displacement of [3H]5-HT from 5-HT2C receptor (unknown origin) expressed in hamster AV12 cells; format: cell-based
D(2) dopamine receptor [4] = molecular target: T3, D(2) dopamine receptor (Homo sapiens, UniProt P14416); assay: Displacement of [3H]raclopride from human dopamine D2L receptor expressed in CHOK1a cell membrane after 180 mins by scintillation counting analysis; format: cell membranes
D(2) dopamine receptor [5] = molecular target: T3, D(2) dopamine receptor; assay: Intrinsic activity at human dopamine D2L receptor expressed in CHOK1a cell membrane assessed as [125I]-cAMP accumulation after 20 mins; format: functional, cell-based
[6] = molecular target: T1, 5-hydroxytryptamine receptor 6; assay: Antagonist activity at human 5-HT6 receptor expressed in CHO cells assessed as reduction in serotonin-induced cAMP accumulation after 30 mins by HTRF assay; format: functional, cell-based
[7] = Clearance in human; format: ADME, organism-based; conditions: in vivo
tsA201 = assay: Selectivity ratio of Ki for human 5-HT2C receptor expressed in human tsA201 cells to Ki for human 5-HT6 receptor expressed in hamster BHK cells; format: cell-based
[8] = molecular target: T1, 5-hydroxytryptamine receptor 6; assay: Displacement of [3H]LSD from human 5-HT6 receptor expressed in human HeLa cells after 1 hr by scintillation spectroscopic analysis; format: cell-based

T1 sequence (P50406 whole entry): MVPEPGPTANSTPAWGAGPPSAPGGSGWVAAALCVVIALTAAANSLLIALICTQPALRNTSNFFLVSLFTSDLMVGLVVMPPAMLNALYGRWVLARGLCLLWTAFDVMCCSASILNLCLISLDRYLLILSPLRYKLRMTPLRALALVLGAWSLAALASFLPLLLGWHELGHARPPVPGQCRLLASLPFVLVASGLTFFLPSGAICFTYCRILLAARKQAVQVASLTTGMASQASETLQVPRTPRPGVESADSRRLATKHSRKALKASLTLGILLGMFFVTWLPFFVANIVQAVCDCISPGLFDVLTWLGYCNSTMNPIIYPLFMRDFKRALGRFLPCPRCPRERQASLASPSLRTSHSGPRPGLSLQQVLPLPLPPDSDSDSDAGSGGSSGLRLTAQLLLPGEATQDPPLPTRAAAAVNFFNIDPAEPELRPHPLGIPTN
T3 sequence (P14416 whole entry): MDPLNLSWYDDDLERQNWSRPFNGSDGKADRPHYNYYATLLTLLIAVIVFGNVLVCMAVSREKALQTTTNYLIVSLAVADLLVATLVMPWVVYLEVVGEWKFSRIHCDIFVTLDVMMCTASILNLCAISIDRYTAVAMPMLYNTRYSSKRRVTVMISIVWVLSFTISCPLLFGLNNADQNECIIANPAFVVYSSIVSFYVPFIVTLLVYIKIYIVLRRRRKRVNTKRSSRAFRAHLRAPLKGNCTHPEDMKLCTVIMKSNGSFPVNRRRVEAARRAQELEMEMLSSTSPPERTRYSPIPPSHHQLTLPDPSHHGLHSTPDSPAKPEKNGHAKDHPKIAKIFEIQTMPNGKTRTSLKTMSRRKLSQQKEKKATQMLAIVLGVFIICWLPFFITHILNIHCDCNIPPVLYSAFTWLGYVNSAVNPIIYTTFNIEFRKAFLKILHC

O=S(=O)(c1ccc(Cl)cc1)n1cc2c3c(cccc31)N1CCNCC1C2 (configuration not stated) gave a Ki [1] of 0.184 µM and a Ki [2] of 1.2 µM.
For COc1ccc(NS(=O)(=O)c2sc3ccc(Cl)cc3c2C)cc1N1CCNCC1, the Ki [3] was 0.77 µM.
In the case of Cc1cccc(S(=O)(=O)n2cc3c4c(cccc42)N2CCNCC2C3)c1 (configuration not stated), the Ki [1] is reported as 0.024 µM and the Ki [2] is reported as 0.46 µM.
With COc1ccc(S(=O)(=O)n2cc3c4c(cccc42)N2CCNCC2C3)cc1 (configuration not stated) the Ki [1] was 0.168 µM and the Ki [2] was 2.9 µM.
Compound O=S(=O)(c1ccccc1)n1cc2c3c(cccc31)N1CCNCC1C2 (configuration not stated) has a Ki [1] of 0.009 µM and a Ki [2] of 0.28 µM.
Work on Fc1ccc2c(CCNCc3cccc(OCC(F)(F)C(F)F)c3)c[nH]c2c1 [IDALOPIRDINE] yielded a Ki [3] of 0.25 µM.
c1ccc(-c2ccccc2CN2CCN3c4cccc5[nH]cc(c45)CC3C2)cc1 (configuration not stated) showed a Ki (D(2) dopamine receptor [4]; read-out: Ki) of 0.45 µM and a Ki (D(2) dopamine receptor [4]; read-out: pKi (converted)) of 0.2 µM.
Work on O=S(=O)(c1cccc(Cl)c1)n1cc2c3c(cccc31)N1CCNCC1C2 (configuration not stated) yielded a Ki [1] of 0.047 µM and a Ki [2] of 0.34 µM.
Compound c1cc2c3c(c[nH]c3c1)CC1CNCCN21 (configuration not stated) has a Ki (D(2) dopamine receptor [4]; read-out: Ki) of 2.1 µM.
For Cc1ccc(S(=O)(=O)n2cc3c4c(cccc42)N2CCNCC2C3)cc1 (configuration not stated), the Ki [1] was 0.096 µM and the Ki [2] was 0.78 µM.
Compound COc1ccccc1S(=O)(=O)n1cc2c3c(cccc31)N1CCNCC1C2 (configuration not stated) has a Ki [1] of 0.026 µM and a Ki [2] of 0.87 µM.
For CCCCCN1CCN2c3cccc4[nH]cc(c34)CC2C1 (configuration not stated), the Ki (D(2) dopamine receptor [4]; read-out: Ki) was 0.098 µM.
In the case of c1ccc(-c2ccc(CN3CCN4c5cccc6[nH]cc(c56)CC4C3)cc2)cc1 (configuration not stated), the Ki (D(2) dopamine receptor [4]; read-out: Ki) is reported as 0.14 µM.
Work on c1ccc(CN2CCN3c4cccc5[nH]cc(c45)CC3C2)cc1 (configuration not stated) yielded an Intrinsic activity (D(2) dopamine receptor [5]) of 51 and a Ki (D(2) dopamine receptor [4]; read-out: Ki) of 0.13 µM.
With O=S(=O)(c1cccc(F)c1)n1cc2c3c(cccc31)N1CCNCC1C2 (configuration not stated) the Activity [6] was “Active”, the Ki [1] was 0.00075 µM and the Ki [2] was 0.24 µM. For the same compound, the clearance [7] was 13.3 mL/min/kg and the Ratio Ki (tsA201) was 250.
O=S(=O)(c1ccccc1F)n1cc2c3c(cccc31)N1CCNCC1C2 (configuration not stated) gave a Ki [2] of 0.35 µM.
For CNc1cc(NS(=O)(=O)c2ccc(N)cc2)cc(NC)n1, the Ki ([8]; read-out: pKi (converted)) was 0.0123 µM.
c1cc2c3c(c[nH]c3c1)CC1CN(CC3CCCCC3)CCN21 (configuration not stated) gave an Intrinsic activity (D(2) dopamine receptor [5]) of 95 and a Ki (D(2) dopamine receptor [4]; read-out: Ki) of 0.054 µM.
Compound CCCN1CCN2c3cccc4[nH]cc(c34)CC2C1 (configuration not stated) has a Ki (D(2) dopamine receptor [4]; read-out: Ki) of 0.57 µM.
In the case of Cc1ccccc1S(=O)(=O)n1cc2c3c(cccc31)N1CCNCC1C2 (configuration not stated), the Ki [1] is reported as 0.021 µM and the Ki [2] is reported as 0.47 µM.
In the case of O=S(=O)(c1ccccc1)c1cnc2c(N3CCNCC3)cccc2c1, the Activity [6] is reported as “Active”.
In the case of CCN1CCN2c3cccc4[nH]cc(c34)CC2C1 (configuration not stated), the Ki (D(2) dopamine receptor [4]; read-out: Ki) is reported as 0.14 µM.
Work on c1ccc(-c2cccc(CN3CCN4c5cccc6[nH]cc(c56)CC4C3)c2)cc1 (configuration not stated) yielded an Intrinsic activity (D(2) dopamine receptor [5]) of 35, a Ki (D(2) dopamine receptor [4]; read-out: Ki) of 0.00065 µM and a Ki (D(2) dopamine receptor [4]; read-out: pKi (converted)) of 0.000229 µM. It also gave a clearance [7] of 65 mL/min/kg.
CC(C)CCN1CCN2c3cccc4[nH]cc(c34)CC2C1 (configuration not stated) gave an Intrinsic activity (D(2) dopamine receptor [5]) of 96 and a Ki (D(2) dopamine receptor [4]; read-out: Ki) of 0.024 µM.
With CN1CCN2c3cccc4[nH]cc(c34)CC2C1 (configuration not stated) the Ki (D(2) dopamine receptor [4]; read-out: Ki) was 0.66 µM.
In the case of O=S(=O)(c1ccccc1Cl)n1cc2c3c(cccc31)N1CCNCC1C2 (configuration not stated), the Ki [2] is reported as 0.46 µM.
Work on CC(C)CN1CCN2c3cccc4[nH]cc(c34)CC2C1 (configuration not stated) yielded a Ki (D(2) dopamine receptor [4]; read-out: Ki) of 0.31 µM.
For CN1C[C@@H](NS(=O)(=O)N(C)C)C[C@@H]2c3cccc4c3c(cn4C)C[C@H]21 [MESULERGINE], the Ki ([8]; read-out: Ki) was 0.776 µM.
O=S(=O)(c1ccc(F)cc1)n1cc2c3c(cccc31)N1CCNCC1C2 (configuration not stated) gave a Ki [1] of 0.029 µM and a Ki [2] of 1.1 µM.
COc1cccc(S(=O)(=O)n2cc3c4c(cccc42)N2CCNCC2C3)c1 (configuration not stated) gave a Ki [1] of 0.024 µM and a Ki [2] of 0.37 µM.
In the case of CCCCN1CCN2c3cccc4[nH]cc(c34)CC2C1 (configuration not stated), the Ki (D(2) dopamine receptor [4]; read-out: Ki) is reported as 0.11 µM.
